The test system of the data set is CCRIS mutagenicity, Ames/micronucleus/aberration tests. Kind of data set: CCRIS mutagenicity studies.
[1] abbreviates: Test System: AMES SALMONELLA TYPHIMURIUM, Strain/Indicator: TA98, Metabolic Activation: HAMSTER, LIVER, S-9, AROCLOR 1254, Method: STANDARD PLATE.
Where [2] appears, read: Test System: AMES SALMONELLA TYPHIMURIUM, Strain/Indicator: TA98, Metabolic Activation: NONE, Method: STANDARD PLATE.
Setting [3] is: Test System: AMES SALMONELLA TYPHIMURIUM, Strain/Indicator: TA100, Metabolic Activation: HAMSTER, LIVER, S-9, AROCLOR 1254, Method: STANDARD PLATE.
The mark [4] stands for this setting: Test System: AMES SALMONELLA TYPHIMURIUM, Strain/Indicator: TA100, Metabolic Activation: NONE, Method: STANDARD PLATE.
The mark [5] stands for this setting: Test System: AMES SALMONELLA TYPHIMURIUM, Strain/Indicator: TA102, Metabolic Activation: NONE, Method: STANDARD PLATE.

The structures appear in SMILES notation. Activity calls are given as the source filed them. The rule behind the calls is not given here.

As to `O=C1CC(c2ccc(O)cc2)Oc2cc(O)cc(O)c21` (stereo not given), the mutagenic call under setting [1] was “inactive; negative”; the mutagenic call under setting [2] was “inactive; negative”; the mutagenic call (Test System: AMES SALMONELLA TYPHIMURIUM, Strain/Indicator: TA98, Metabolic Activation: RAT, LIVER, S-9, AROCLOR 1254, Method: STANDARD PLATE) is “inactive; negative”; the mutagenic call under setting [3] was “inactive; negative”; the mutagenic call under setting [4] was “inactive; negative”; the mutagenic call (Test System: AMES SALMONELLA TYPHIMURIUM, Strain/Indicator: TA100, Metabolic Activation: RAT, LIVER, S-9, AROCLOR 1254, Method: STANDARD PLATE) is “inactive; negative”. Further, the mutagenic call is “inactive; negative” (Test System: AMES SALMONELLA TYPHIMURIUM, Strain/Indicator: TA1535, Metabolic Activation: HAMSTER, LIVER, S-9, AROCLOR 1254, Method: STANDARD PLATE); “inactive; negative” (Test System: AMES SALMONELLA TYPHIMURIUM, Strain/Indicator: TA1535, Metabolic Activation: NONE, Method: STANDARD PLATE); “inactive; negative” (Test System: AMES SALMONELLA TYPHIMURIUM, Strain/Indicator: TA1535, Metabolic Activation: RAT, LIVER, S-9, AROCLOR 1254, Method: STANDARD PLATE); “inactive; negative” (Test System: AMES SALMONELLA TYPHIMURIUM, Strain/Indicator: TA1537, Metabolic Activation: HAMSTER, LIVER, S-9, AROCLOR 1254, Method: STANDARD PLATE); “inactive; negative” (Test System: AMES SALMONELLA TYPHIMURIUM, Strain/Indicator: TA1537, Metabolic Activation: NONE, Method: STANDARD PLATE); “inactive; negative” (Test System: AMES SALMONELLA TYPHIMURIUM, Strain/Indicator: TA1537, Metabolic Activation: RAT, LIVER, S-9, AROCLOR 1254, Method: STANDARD PLATE). The mutagenic call is “inactive; negative” (Test System: AMES SALMONELLA TYPHIMURIUM, Strain/Indicator: TA1538, Metabolic Activation: HAMSTER, LIVER, S-9, AROCLOR 1254, Method: STANDARD PLATE); “inactive; negative” (Test System: AMES SALMONELLA TYPHIMURIUM, Strain/Indicator: TA1538, Metabolic Activation: NONE, Method: STANDARD PLATE); “inactive; negative” (Test System: AMES SALMONELLA TYPHIMURIUM, Strain/Indicator: TA1538, Metabolic Activation: RAT, LIVER, S-9, AROCLOR 1254, Method: STANDARD PLATE).
For `O=C1CCCc2cc([N+](=O)[O-])c3ccccc3c21`, the mutagenic call (Test System: AMES SALMONELLA TYPHIMURIUM, Strain/Indicator: TA98-1,8-DNP6, Metabolic Activation: NONE) was “inactive; negative”; the mutagenic call (Test System: AMES SALMONELLA TYPHIMURIUM, Strain/Indicator: TA98-1,8-DNP6, Metabolic Activation: S-9) is “inactive; negative”; the mutagenic call (Test System: AMES SALMONELLA TYPHIMURIUM, Strain/Indicator: TA98, Metabolic Activation: NONE) is “active; positive”; the mutagenic call (Test System: AMES SALMONELLA TYPHIMURIUM, Strain/Indicator: TA98, Metabolic Activation: S-9) is “active; positive”; the mutagenic call (Test System: AMES SALMONELLA TYPHIMURIUM, Strain/Indicator: TA98NR, Metabolic Activation: NONE) was “inactive; negative”; the mutagenic call (Test System: AMES SALMONELLA TYPHIMURIUM, Strain/Indicator: TA98NR, Metabolic Activation: S-9) was “inactive; negative”. The mutagenic call (Test System: AMES SALMONELLA TYPHIMURIUM, Strain/Indicator: TA100, Metabolic Activation: NONE) is “active; positive”; the mutagenic call (Test System: AMES SALMONELLA TYPHIMURIUM, Strain/Indicator: TA100, Metabolic Activation: S-9) is “active; positive”; the mutagenic call (Test System: AMES SALMONELLA TYPHIMURIUM, Strain/Indicator: TA100NR, Metabolic Activation: NONE) was “active; positive”; the mutagenic call (Test System: AMES SALMONELLA TYPHIMURIUM, Strain/Indicator: TA100NR, Metabolic Activation: S-9) was “active; positive”.
Regarding `O=CC(Cl)=C(Cl)Cl`, the mutagenic call reads like this: under setting [2], “active; positive”; under setting [4], “active; positive”.
As for `C[C@]1(Cn2ccnn2)[C@H](C(=O)O)N2C(=O)C[C@H]2S1(=O)=O`, the mutagenic call reads like this: under setting [1], “inactive; negative”; (Test System: AMES SALMONELLA TYPHIMURIUM, Strain/Indicator: TA98, Metabolic Activation: NONE, Method: PREINCUBATION) “inactive; negative”; under setting [2], “inactive; negative”; (Test System: AMES SALMONELLA TYPHIMURIUM, Strain/Indicator: TA98, Metabolic Activation: S-9, Method: PREINCUBATION) “inactive; negative”; under setting [3], “inactive; negative”; (Test System: AMES SALMONELLA TYPHIMURIUM, Strain/Indicator: TA100, Metabolic Activation: NONE, Method: PREINCUBATION) “inactive; negative”. The mutagenic call by setting is: under setting [4], “inactive; negative”; (Test System: AMES SALMONELLA TYPHIMURIUM, Strain/Indicator: TA100, Metabolic Activation: S-9, Method: PREINCUBATION) “inactive; negative”; (Test System: AMES SALMONELLA TYPHIMURIUM, Strain/Indicator: TA102, Metabolic Activation: HAMSTER, LIVER, S-9, AROCLOR 1254, Method: STANDARD PLATE) “inactive; negative”; under setting [5], “inactive; negative”; (Test System: AMES SALMONELLA TYPHIMURIUM, Strain/Indicator: TA1535, Metabolic Activation: NONE, Method: PREINCUBATION) “inactive; negative”; (Test System: AMES SALMONELLA TYPHIMURIUM, Strain/Indicator: TA1535, Metabolic Activation: S-9, Method: PREINCUBATION) “inactive; negative”. In addition, the mutagenic call was “inactive; negative” (Test System: AMES SALMONELLA TYPHIMURIUM, Strain/Indicator: TA1537, Metabolic Activation: NONE, Method: PREINCUBATION); “inactive; negative” (Test System: AMES SALMONELLA TYPHIMURIUM, Strain/Indicator: TA1537, Metabolic Activation: S-9, Method: PREINCUBATION); “inactive; negative” (Test System: E. COLI, Strain/Indicator: WP2 UVRA, Metabolic Activation: NONE, Method: PREINCUBATION); “inactive; negative” (Test System: E. COLI, Strain/Indicator: WP2 UVRA, Metabolic Activation: S-9, Method: PREINCUBATION).
For `O=C(NO)c1ccc(O)c(O)c1`, the mutagenic call reads like this: (Test System: AMES SALMONELLA TYPHIMURIUM, Strain/Indicator: TA97, Metabolic Activation: NONE, Method: STANDARD PLATE) “inactive; negative”; (Test System: AMES SALMONELLA TYPHIMURIUM, Strain/Indicator: TA97, Metabolic Activation: RAT, LIVER, S-9, DELOR 103, Method: STANDARD PLATE) “active; positive”; under setting [2], “inactive; negative”; (Test System: AMES SALMONELLA TYPHIMURIUM, Strain/Indicator: TA98, Metabolic Activation: RAT, LIVER, S-9, DELOR 103, Method: STANDARD PLATE) “inactive; negative”; under setting [4], “inactive; negative”; (Test System: AMES SALMONELLA TYPHIMURIUM, Strain/Indicator: TA100, Metabolic Activation: RAT, LIVER, S-9, DELOR 103, Method: STANDARD PLATE) “inactive; negative”. Further, the mutagenic call is “inactive; negative” under setting [5] and “inactive; negative” (Test System: AMES SALMONELLA TYPHIMURIUM, Strain/Indicator: TA102, Metabolic Activation: RAT, LIVER, S-9, DELOR 103, Method: STANDARD PLATE).
For `Nc1ccc(/C=C/c2cccc(Cl)c2)cc1`, the mutagenic call reads like this: (Test System: AMES SALMONELLA TYPHIMURIUM, Strain/Indicator: TA98(1,8-DNP6), Metabolic Activation: NONE, Method: STANDARD PLATE) “inactive; negative”; (Test System: AMES SALMONELLA TYPHIMURIUM, Strain/Indicator: TA98(1,8-DNP6), Metabolic Activation: S-9, Method: STANDARD PLATE) “active; positive”; under setting [2], “active; positive”; (Test System: AMES SALMONELLA TYPHIMURIUM, Strain/Indicator: TA98, Metabolic Activation: S-9, Method: STANDARD PLATE) “active; positive”; under setting [4], “inactive; negative”; (Test System: AMES SALMONELLA TYPHIMURIUM, Strain/Indicator: TA100, Metabolic Activation: S-9, Method: STANDARD PLATE) “active; positive”.
For the compound `Cc1c2c(c(C)c3c1ccc1ccccc13)C=C[C@@H](O)[C@@H]2O`, the mutagenic call (Test System: CHINESE HAMSTER V-79, Strain/Indicator: V-79/OUABAIN, Metabolic Activation: CELL-MEDIATED, Method: STANDARD PLATE) is “active; positive”.
For the compound `CNP(=O)(N(C)C)N(C)C`, the mutagenic call was “inactive; negative” (Test System: AMES SALMONELLA TYPHIMURIUM, Strain/Indicator: TA100, Metabolic Activation: NONE, Method: SUSPENSION) and “active; positive” (Test System: AMES SALMONELLA TYPHIMURIUM, Strain/Indicator: TA100, Metabolic Activation: RAT, LIVER, S-9, AROCLOR 1254, Method: SUSPENSION).
